From patent US20240102994A1, “Method to Evaluate the Capability of Compounds on the Trapping of Proteins” (Eisbach Bio GmbH, priority 2020, published 2024) come the findings set out here.

The target in one assay is T1, GFP-PARP2 (Homo sapiens, UniProt Q9UGN5).
T1 construct: expressed in transfected cells; host or cells: U2OS
The assay can be described thus: Live-cell protein trapping assay: GFP-PARP2 at laser micro-irradiation sites. It is filed as cell-based. Particulars: U2OS cells. The text has this:
The disclosed method is used to analyze protein trapping induced by compounds. Live-cell imaging allows monitoring of the accumulation of at least one protein, e.g. which is detectably labelled, e.g. fluorophore-tagged, at the induced DNA lesions over time. Time0 (t0) hereby describes the timepoint before induction of DNA damage by irradiation. Thus, the relative enrichment of the at least one protein at DNA lesions within the imaged time frame (from t0 to tEND) can be quantified. This allows to the analysis of the recruitment and retention (protein trapping) kinetics of the at least one protein, e.g. which is detectably labelled, e.g. fluorophore-tagged, at DNA lesions. Suitably, as a first step the accumulation and/or residence time of a protein, e.g. which is detectably labelled, e.g. fluorophore-tagged, is measured in the absence of a test compound (control). The optimal imaging time is hereby determined by the time in which the majority of the protein has released from the damage site, indicated by the decrease of signal, e.g. fluorescent signal, at the DNA lesion (see FIG. 2A). Subsequently, the accumulation and/or residence time of the protein, e.g. which is detectably labelled, e.g. fluorophore-tagged, may be determined in the presence of at least one test compound. […] Using this method, we examined the trapping of GFP-tagged ALC1 in the presence of ALCi-1 compared to a DMSO control.
Eukaryotic cells were seeded onto 4/8-well Nunc Lab-Tek chambers (Thermo Fisher Scientific) in the corresponding cell culture medium, cultured over night at 37° C. and transfected with fluorophore-tagged protein plasmids using XtremeGENE HP DNA transfection reagent (Sigma). […]
The drug- and control-master-mixes were prepared in Leibovitz's L-15 media (+10% FBS). […] Therefore, the optimal imaging time for the protein of interest was determined by investigation of the trapping and release under control conditions (no treatment). […] Subsequently, the fluorophore-tagged protein was measured in the presence of at least one compound. […]

For a further assay, the target named is PARP1-GFP (Homo sapiens, UniProt P09874). Particulars: wild-type U2OS cells, 10 μM for 1 h, 355 nm laser, 30 minutes, compared to DMSO. An excerpt:
The disclosed method is used to analyze protein trapping induced by compounds. Live-cell imaging allows monitoring of the accumulation of at least one protein, e.g. which is detectably labelled, e.g. fluorophore-tagged, at the induced DNA lesions over time. Time0 (t0) hereby describes the timepoint before induction of DNA damage by irradiation. Thus, the relative enrichment of the at least one protein at DNA lesions within the imaged time frame (from t0 to tEND) can be quantified. This allows to the analysis of the recruitment and retention (protein trapping) kinetics of the at least one protein, e.g. which is detectably labelled, e.g. fluorophore-tagged, at DNA lesions. Suitably, as a first step the accumulation and/or residence time of a protein, e.g. which is detectably labelled, e.g. fluorophore-tagged, is measured in the absence of a test compound (control). The optimal imaging time is hereby determined by the time in which the majority of the protein has released from the damage site, indicated by the decrease of signal, e.g. fluorescent signal, at the DNA lesion (see FIG. 2A). Subsequently, the accumulation and/or residence time of the protein, e.g. which is detectably labelled, e.g. fluorophore-tagged, may be determined in the presence of at least one test compound. […]

Entries after “also recorded” stand apart in the source; their conditions may differ.

T1 sequence (Q9UGN5 whole entry): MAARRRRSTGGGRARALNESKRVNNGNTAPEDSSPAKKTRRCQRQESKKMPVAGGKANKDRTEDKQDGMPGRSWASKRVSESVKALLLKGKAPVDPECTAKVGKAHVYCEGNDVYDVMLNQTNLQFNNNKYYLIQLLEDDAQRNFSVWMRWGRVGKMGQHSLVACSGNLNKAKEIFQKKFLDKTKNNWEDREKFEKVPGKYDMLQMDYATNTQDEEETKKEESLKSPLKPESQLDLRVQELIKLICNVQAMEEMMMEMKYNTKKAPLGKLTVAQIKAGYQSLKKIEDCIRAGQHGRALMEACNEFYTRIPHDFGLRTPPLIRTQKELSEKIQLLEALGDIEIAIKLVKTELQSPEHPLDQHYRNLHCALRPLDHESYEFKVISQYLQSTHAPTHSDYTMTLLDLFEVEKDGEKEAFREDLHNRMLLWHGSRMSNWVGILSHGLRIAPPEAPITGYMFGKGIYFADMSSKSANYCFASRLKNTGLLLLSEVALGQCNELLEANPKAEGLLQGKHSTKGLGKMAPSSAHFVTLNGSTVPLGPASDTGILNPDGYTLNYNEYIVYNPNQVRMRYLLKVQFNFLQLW
Chain of PARP1-GFP (P09874 whole entry): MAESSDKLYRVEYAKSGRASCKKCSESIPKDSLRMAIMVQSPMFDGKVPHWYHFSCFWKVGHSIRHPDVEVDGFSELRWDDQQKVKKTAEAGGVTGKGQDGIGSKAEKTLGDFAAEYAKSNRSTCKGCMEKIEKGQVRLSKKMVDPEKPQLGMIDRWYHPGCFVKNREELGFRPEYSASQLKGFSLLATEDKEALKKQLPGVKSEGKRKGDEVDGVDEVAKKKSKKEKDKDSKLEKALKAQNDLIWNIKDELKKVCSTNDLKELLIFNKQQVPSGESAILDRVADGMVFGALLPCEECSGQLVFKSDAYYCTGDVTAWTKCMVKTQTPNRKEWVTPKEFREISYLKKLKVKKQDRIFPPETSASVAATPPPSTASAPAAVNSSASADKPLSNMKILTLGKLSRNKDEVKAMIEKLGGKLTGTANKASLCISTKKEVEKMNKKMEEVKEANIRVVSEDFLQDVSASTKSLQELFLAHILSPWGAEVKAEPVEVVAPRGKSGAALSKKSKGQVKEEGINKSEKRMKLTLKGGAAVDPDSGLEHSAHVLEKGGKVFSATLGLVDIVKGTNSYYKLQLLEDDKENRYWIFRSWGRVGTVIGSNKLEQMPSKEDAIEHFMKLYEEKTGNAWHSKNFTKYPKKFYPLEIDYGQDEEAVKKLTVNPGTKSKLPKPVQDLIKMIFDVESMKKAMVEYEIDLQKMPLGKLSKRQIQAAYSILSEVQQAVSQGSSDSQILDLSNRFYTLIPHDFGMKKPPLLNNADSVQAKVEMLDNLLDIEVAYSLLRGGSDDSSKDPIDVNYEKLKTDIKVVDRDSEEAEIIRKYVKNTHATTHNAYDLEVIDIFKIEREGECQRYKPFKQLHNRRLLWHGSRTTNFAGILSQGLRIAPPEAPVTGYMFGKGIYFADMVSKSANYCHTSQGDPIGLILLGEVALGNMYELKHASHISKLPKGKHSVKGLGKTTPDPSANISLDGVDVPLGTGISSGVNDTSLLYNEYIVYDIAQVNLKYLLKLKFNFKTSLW

With `Cn1ncnc1[C@H]1c2n[nH]c(=O)c3cc(F)cc(c23)N[C@@H]1c1ccc(F)cc1` [talazoparib], the “retention of PARP2 at induced damage sites (PARP trapping)” value at GFP-PARP2 (talazoparib 100 nM, 10% 355 nm laser, 15 minutes, vs absence of PARPi) is given as “enhanced retention of PARP2”.
In the case of `C[C@]1(c2nc3c(C(N)=O)cccc3[nH]2)CCCN1` [veliparib], the “recruitment of PARP2 to the damage site” value on GFP-PARP2 (veliparib 10 μM, 10% 355 nm laser, 15 minutes, vs absence of PARPi) is “less recruitment of PARP2; also recorded: overall less PARP2 recruitment”. On GFP-PARP2 (veliparib, compared to DMSO-only control), the “PARP2 trapping at DNA lesions” value is “only weak trapping”. In addition, the “retention of PARP1 at DNA damage sites (PARP1-trapping)” value at PARP1-GFP was “enhanced retention of PARP1”.
